Values of other authors, collected in patent publication US7759468B1, “Bioactive peptide-based probes” (priority 2003, dated 2010).

System: L. lactis ssp. lactis C2
Conditions: known / from the literature; cited from earlier work

In the case of Glu-Glu [Glu-Glu peptide], the Inhibition of growth is given as “potent inhibitor of growth”.
